Test results: the NIST ThermoML archive (doi:10.1016/j.jct.2016.04.003)
± gives the expanded uncertainty stated by the source.

Test: xn = mol fraction of the nth substance listed
Conditions: for surface tension liquid-gas: Drop volume; for viscosity / speed of sound / mass density: 99 kPa, Liquid; for viscosity: Capillary tube (Ostwald / Ubbelohde) method; for speed of sound: Frequency=3 MHz, Sing-around technique in a fixed-path interferometer; for mass density: Vibrating tube method

CCC[n+]1ccccc1.F[B-](F)(F)F [1-propylpyridinium tetrafluoroborate] + O
surface tension liquid-gas (313.15 K, x1 = 0.028): 56 ± 0.6 mN/m | surface tension liquid-gas (313.15 K, x1 = 0.0551): 53.7 ± 0.6 mN/m | surface tension liquid-gas (313.15 K, x1 = 0.1008): 51.7 ± 0.6 mN/m | surface tension liquid-gas (313.15 K, x1 = 0.1522): 50.5 ± 0.6 mN/m | surface tension liquid-gas (313.15 K, x1 = 0.1965): 49.9 ± 0.6 mN/m | surface tension liquid-gas (313.15 K, x1 = 0.2947): 49.8 ± 0.6 mN/m | surface tension liquid-gas (313.15 K, x1 = 0.3451): 49.6 ± 0.6 mN/m | surface tension liquid-gas (313.15 K, x1 = 0.3968): 49.5 ± 0.6 mN/m | surface tension liquid-gas (313.15 K, x1 = 0.4779): 49.5 ± 0.6 mN/m | surface tension liquid-gas (313.15 K, x1 = 0.5827): 49.6 ± 0.6 mN/m | surface tension liquid-gas (313.15 K, x1 = 0.6846): 49.6 ± 0.6 mN/m | surface tension liquid-gas (313.15 K, x1 = 0.7861): 49.6 ± 0.7 mN/m | surface tension liquid-gas (313.15 K, x1 = 0.8862): 49.6 ± 0.7 mN/m | surface tension liquid-gas (313.15 K, x1 = 0.9425): 49.7 ± 0.7 mN/m | surface tension liquid-gas (313.15 K, x1 = 1): 49.8 ± 0.7 mN/m | viscosity (313.15 K, x1 = 0.0492): 0.843 ± 0.068 mPa·s | viscosity (313.15 K, x1 = 0.0952): 1.122 ± 0.09 mPa·s | viscosity (313.15 K, x1 = 0.1948): 1.755 ± 0.14 mPa·s | viscosity (313.15 K, x1 = 0.2588): 2.326 ± 0.19 mPa·s | viscosity (313.15 K, x1 = 0.3891): 4.172 ± 0.34 mPa·s | viscosity (313.15 K, x1 = 0.4894): 7.412 ± 0.6 mPa·s | viscosity (313.15 K, x1 = 0.5942): 10.92 ± 0.88 mPa·s | viscosity (313.15 K, x1 = 0.6952): 16.2 ± 1.3 mPa·s | viscosity (313.15 K, x1 = 0.7903): 23.05 ± 1.9 mPa·s | viscosity (313.15 K, x1 = 0.8982): 35.15 ± 2.8 mPa·s | viscosity (313.15 K, x1 = 0.943): 43.35 ± 3.5 mPa·s | viscosity (313.15 K, x1 = 1): 56.02 ± 4.5 mPa·s | speed of sound (313.15 K, x1 = 0.0185): 1559 ± 1.3 m/s | speed of sound (313.15 K, x1 = 0.0287): 1568.7 ± 1.2 m/s | speed of sound (313.15 K, x1 = 0.0466): 1580.6 ± 1.2 m/s | speed of sound (313.15 K, x1 = 0.0766): 1593 ± 1.3 m/s | speed of sound (313.15 K, x1 = 0.0964): 1598.5 ± 1.3 m/s | speed of sound (313.15 K, x1 = 0.2011): 1610.4 ± 1.3 m/s | speed of sound (313.15 K, x1 = 0.2858): 1610.4 ± 1.4 m/s | speed of sound (313.15 K, x1 = 0.3993): 1607.7 ± 1.5 m/s | speed of sound (313.15 K, x1 = 0.4979): 1604.7 ± 1.6 m/s | speed of sound (313.15 K, x1 = 0.5772): 1602.4 ± 1.7 m/s | speed of sound (313.15 K, x1 = 0.6015): 1601.9 ± 1.7 m/s | speed of sound (313.15 K, x1 = 0.6695): 1600.6 ± 1.8 m/s | speed of sound (313.15 K, x1 = 0.7309): 1599.9 ± 1.9 m/s | speed of sound (313.15 K, x1 = 0.7771): 1599.7 ± 2 m/s | speed of sound (313.15 K, x1 = 0.8395): 1600.3 ± 2.1 m/s | speed of sound (313.15 K, x1 = 0.9054): 1601.8 ± 2.2 m/s | speed of sound (313.15 K, x1 = 0.9633): 1604.2 ± 2.3 m/s | speed of sound (313.15 K, x1 = 1): 1606.3 ± 2.3 m/s | mass density (313.15 K, x1 = 0.0185): 1026 ± 1.1 kg/m3 | mass density (313.15 K, x1 = 0.0287): 1041.1 ± 1 kg/m3 | mass density (313.15 K, x1 = 0.0466): 1063.1 ± 1 kg/m3 | mass density (313.15 K, x1 = 0.0766): 1091.4 ± 1 kg/m3 | mass density (313.15 K, x1 = 0.0964): 1105.8 ± 1 kg/m3 | mass density (313.15 K, x1 = 0.2011): 1154.3 ± 1 kg/m3 | mass density (313.15 K, x1 = 0.2858): 1176.6 ± 1 kg/m3 | mass density (313.15 K, x1 = 0.3993): 1196.3 ± 1 kg/m3 | mass density (313.15 K, x1 = 0.4979): 1208.2 ± 1.1 kg/m3 | mass density (313.15 K, x1 = 0.5772): 1215.5 ± 1.1 kg/m3 | mass density (313.15 K, x1 = 0.6015): 1217.5 ± 1.1 kg/m3 | mass density (313.15 K, x1 = 0.6695): 1222.5 ± 1.2 kg/m3 | mass density (313.15 K, x1 = 0.7309): 1226.5 ± 1.2 kg/m3 | mass density (313.15 K, x1 = 0.7771): 1229.4 ± 1.3 kg/m3 | mass density (313.15 K, x1 = 0.8395): 1232.9 ± 1.4 kg/m3 | mass density (313.15 K, x1 = 0.9054): 1236.7 ± 1.4 kg/m3 | mass density (313.15 K, x1 = 0.9633): 1240.1 ± 1.5 kg/m3 | mass density (313.15 K, x1 = 1): 1242.4 ± 1.6 kg/m3 | surface tension liquid-gas (323.15 K, x1 = 0.028): 54.5 ± 0.6 mN/m | surface tension liquid-gas (323.15 K, x1 = 0.0551): 52.2 ± 0.6 mN/m | surface tension liquid-gas (323.15 K, x1 = 0.1008): 50.4 ± 0.5 mN/m | surface tension liquid-gas (323.15 K, x1 = 0.1522): 49.2 ± 0.5 mN/m | surface tension liquid-gas (323.15 K, x1 = 0.1965): 48.6 ± 0.5 mN/m | surface tension liquid-gas (323.15 K, x1 = 0.2947): 48.7 ± 0.6 mN/m | surface tension liquid-gas (323.15 K, x1 = 0.3451): 48.6 ± 0.6 mN/m | surface tension liquid-gas (323.15 K, x1 = 0.3968): 48.5 ± 0.6 mN/m | surface tension liquid-gas (323.15 K, x1 = 0.4779): 48.5 ± 0.6 mN/m | surface tension liquid-gas (323.15 K, x1 = 0.5827): 48.7 ± 0.6 mN/m | surface tension liquid-gas (323.15 K, x1 = 0.6846): 48.7 ± 0.6 mN/m | surface tension liquid-gas (323.15 K, x1 = 0.7861): 48.8 ± 0.7 mN/m | surface tension liquid-gas (323.15 K, x1 = 0.8862): 48.9 ± 0.7 mN/m | surface tension liquid-gas (323.15 K, x1 = 0.9425): 48.9 ± 0.7 mN/m | surface tension liquid-gas (323.15 K, x1 = 1): 49 ± 0.7 mN/m | viscosity (323.15 K, x1 = 0.0492): 0.714 ± 0.057 mPa·s | viscosity (323.15 K, x1 = 0.0952): 0.889 ± 0.071 mPa·s | viscosity (323.15 K, x1 = 0.1948): 1.379 ± 0.11 mPa·s | viscosity (323.15 K, x1 = 0.2588): 1.808 ± 0.14 mPa·s | viscosity (323.15 K, x1 = 0.3891): 3.105 ± 0.25 mPa·s | viscosity (323.15 K, x1 = 0.4894): 5.345 ± 0.43 mPa·s | viscosity (323.15 K, x1 = 0.5942): 8.242 ± 0.66 mPa·s | viscosity (323.15 K, x1 = 0.6952): 12.05 ± 0.97 mPa·s | viscosity (323.15 K, x1 = 0.7903): 15.97 ± 1.3 mPa·s | viscosity (323.15 K, x1 = 0.8982): 23.99 ± 1.9 mPa·s | viscosity (323.15 K, x1 = 0.943): 28.38 ± 2.3 mPa·s | viscosity (323.15 K, x1 = 1): 36.99 ± 3 mPa·s | speed of sound (323.15 K, x1 = 0.0185): 1563.2 ± 1.2 m/s | speed of sound (323.15 K, x1 = 0.0287): 1569.4 ± 1.2 m/s | speed of sound (323.15 K, x1 = 0.0466): 1576.8 ± 1.2 m/s | speed of sound (323.15 K, x1 = 0.0766): 1583.8 ± 1.2 m/s | speed of sound (323.15 K, x1 = 0.0964): 1586.7 ± 1.3 m/s | speed of sound (323.15 K, x1 = 0.2011): 1591.5 ± 1.3 m/s | speed of sound (323.15 K, x1 = 0.2858): 1589.7 ± 1.4 m/s | speed of sound (323.15 K, x1 = 0.3993): 1586 ± 1.5 m/s | speed of sound (323.15 K, x1 = 0.4979): 1582.6 ± 1.6 m/s | speed of sound (323.15 K, x1 = 0.5772): 1580 ± 1.7 m/s | speed of sound (323.15 K, x1 = 0.6015): 1579.4 ± 1.7 m/s | speed of sound (323.15 K, x1 = 0.6695): 1577.7 ± 1.8 m/s | speed of sound (323.15 K, x1 = 0.7309): 1576.7 ± 1.9 m/s | speed of sound (323.15 K, x1 = 0.7771): 1576.2 ± 2 m/s | speed of sound (323.15 K, x1 = 0.8395): 1576.6 ± 2.1 m/s | speed of sound (323.15 K, x1 = 0.9054): 1578.1 ± 2.2 m/s | speed of sound (323.15 K, x1 = 0.9633): 1580.8 ± 2.3 m/s | speed of sound (323.15 K, x1 = 1): 1583.3 ± 2.3 m/s | mass density (323.15 K, x1 = 0.0185): 1020.8 ± 1.1 kg/m3 | mass density (323.15 K, x1 = 0.0287): 1035.6 ± 1 kg/m3 | mass density (323.15 K, x1 = 0.0466): 1057 ± 1 kg/m3 | mass density (323.15 K, x1 = 0.0766): 1084.7 ± 1 kg/m3 | mass density (323.15 K, x1 = 0.0964): 1098.9 ± 1 kg/m3 | mass density (323.15 K, x1 = 0.2011): 1146.9 ± 1 kg/m3 | mass density (323.15 K, x1 = 0.2858): 1169.2 ± 1 kg/m3 | mass density (323.15 K, x1 = 0.3993): 1189 ± 1 kg/m3 | mass density (323.15 K, x1 = 0.4979): 1200.9 ± 1.1 kg/m3 | mass density (323.15 K, x1 = 0.5772): 1208.2 ± 1.1 kg/m3 | mass density (323.15 K, x1 = 0.6015): 1210.1 ± 1.1 kg/m3 | mass density (323.15 K, x1 = 0.6695): 1215.1 ± 1.2 kg/m3 | mass density (323.15 K, x1 = 0.7309): 1219.2 ± 1.2 kg/m3 | mass density (323.15 K, x1 = 0.7771): 1222.1 ± 1.3 kg/m3 | mass density (323.15 K, x1 = 0.8395): 1225.8 ± 1.3 kg/m3 | mass density (323.15 K, x1 = 0.9054): 1229.6 ± 1.4 kg/m3 | mass density (323.15 K, x1 = 0.9633): 1233 ± 1.5 kg/m3 | mass density (323.15 K, x1 = 1): 1235.3 ± 1.6 kg/m3
